This assay addresses T1, curli (CsgA amyloid fibers) (Escherichia coli, UniProt P28307).
T1 construct: native curli fibers isolated from MC4100, mature CsgA polymer (sec signal removed; native fibers may contain minor nucleator CsgB); immobilized by amine coupling for SPR
The experiment in a line: surface plasmon resonance (Biacore […]), curli immobilized on CM5 chip. It is filed as binding. Background: SPR reads the build-up and loss of mass on a sensor chip optically.

T1 sequence (P28307 21-151): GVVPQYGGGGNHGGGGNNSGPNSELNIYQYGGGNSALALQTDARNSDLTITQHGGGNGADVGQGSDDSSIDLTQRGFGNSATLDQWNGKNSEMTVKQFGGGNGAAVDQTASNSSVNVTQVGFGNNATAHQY

As for `Nc1c(/N=N/c2ccc(-c3ccc(/N=N/c4cc(S(=O)(=O)O)c5ccccc5c4N)cc3)cc2)cc(S(=O)(=O)O)c2ccccc12` [CR, Congo red], the affinity, expressed as Kd, was 2.8 µM.
